Values of other authors in US6054466A, “Inhibitors of farnesyl-protein transferase” (Merck & Co., Inc., priority 1998, dated 2000).

Assays:
[1] = system: farnesyl-protein transferase; conditions: via HMG-CoA reductase inhibition
Ras processing = conditions: by inhibiting the rate-limiting step in the isoprenoid biosynthetic pathway

Compound | Indirect inhibition of farnesyl-protein transferase in vivo [1] | Block of Ras processing in cells (Ras processing)
CC[C@H](C)C(=O)O[C@H]1CCC=C2C=C[C@H](C)[C@H](CC[C@@H]3C[C@@H](O)CC(=O)O3)[C@H]21 [compactin] | Indirect inhibition | 
CC[C@H](C)C(=O)O[C@H]1C[C@@H](C)C=C2C=C[C@H](C)[C@H](CC[C@@H]3C[C@@H](O)CC(=O)O3)[C@H]21 [lovastatin] | Indirect inhibition | blocks Ras processing in cells
